From patent US12691101B2, “Compound and method for preventing or treating of respiratory diseases comprising the same as an active ingredient” (YONSEI UNIVERSITY, UNIVERSITY - INDUSTRY FOUNDATION (UIF), priority 2019, dated 2026)

Columns and labels:
[1] = tested on: AN01, CFTR and ENaC ion channel activity; assay: Short circuit current in HNE cells; assay type: cell-based, human; details: long-term treatment (48 hours)
Description: (A) Representative tracing of intracellular pH of treated (grey line) and IL-4 (10 ng/ml) treated HNE cells. Pendrin was inhibited by F56 ([…]). (B) The mRNA expression level of pendrin was determined at the indicated time after treatment of F56 ([…]) by real-time quantitative PCR in IL-4-treated HBE cells (mean±S.E., n=3). (C) The Cl^−/HCO3^− exchange activity was measured in IL-4-treated HBE cells. F56 was pretreated for 5 minutes. (D, E) Short circuit current record of HNE cells. Representative tracing showing the effect of F56 on the ENaC, CFTR and CaCC channel activity. After exposing to F56 ([…]) for 48 hours, in presence or absence of IL-4, the channel activity was measured. Amiloride (100 μM), forskolin (20 μM, CFTRinh-172 (10 μM) and ATP (100 μM) were added to the apical bath. (F) The AN01, CFTR and ENaC mRNA expression level was determined at the indicated time after treatment of F56 ([…]) by real-time quantitative PCR in IL-4-treated HNE cells (mean±S.E., n=5) * P<0.05, ** P<0.01, *** P<0.001.
Snapwell inserts containing the primary culture of AN01- and CFTR-expressing FRT and human nasal cavity epithelium (HNE) cells were equipped on Ussing chamber (Physiologic Instruments, San Diego, CA, USA). […] Using Labchart Pro 7 (AD Instruments), data were recorded and analyzed. […]

[2] = Auditory brainstem response (ABR) hearing threshold in mice; assay type: in vivo, mouse; details: 10 mg/kg/day for 1 week
Description: The negative effect of F56 was examined by i.p administering of F56 10 mg/kg to female balb/c mice every 24 hours for 7 days. In 24 hours after the last administration, the hearing of mice was measured and serum was obtained. According to the manufacturer's protocol, the total serum level of triiodothyronine (T3) or thyroxine (T4) using a mouse ELISA kit (Calbiotech, T3043T-100 or T4044T-100).
The hearing level was measured in each mouse by measuring ABR threshold using an auditory-evoking potential workstation and BioSig software (Tucker-Davis Technologies, Alachua, FL, USA). The output from the speaker was calibrated using PCB 377C10 microphone (PCB Piezotronics, Inc. New York, NY, USA) and found to be within ±4 dB over the tested frequency range. After anesthetizing the mice, each ear was stimulated with an ear probe sealed inside the ear canal. The body temperature of the mice was maintained at 38° C. with an isothermal heating water-pad. The intensity of the click sound decreased from 70 dB SPL to 10 dB SPL with a 5-dB decrease. The mean value of ABR was calculated and the auditory threshold was defined as the lowest ABR response until wave I of ABR was no longer visually discernible.

NF-κ = assay: IVIS lung fluorescence in LPS-treated NF-κ reporter/SPC-Cre-ERT2 mice; assay type: in vivo, mouse; details: 10 mg/kg i.p., 6 hours after LPS
Source text: From Orient Bio (Sungnam, Republic of Korea), 8-10-week-old wild-type male C57BL/6J mice having a body weight of 20-24 g were purchased. Food and water were provided to all the animals, and the similar optical cycle of day and night was applied. Transfected NF-κ reporter/SPC-Cre-ERT2 mice were used for IVIS in the present invention. Briefly, NF-κ reporter mice contain ROSA26 lox-STOP-lox-cassette inserted between a promoter and NF-κ gene. In general, a stop gene is positioned between loxP and loxP, and NF-κ is not expressed. NF-κ reporter/SPC-Cre-ERT2 mice were obtained by raising ROSA26R mice to surfactant protein C(SPC)-Cre-ERT2 mice. The Cre-ERT2 recombinase activity in these transfected mice was induced by tamoxifen. These NF-κ reporter/SPC-Cre-ERT2 mice express NF-κ activity in the alveolar epithelium by one of dTomato fluorescence or luciferase in presence of tamoxifen. […]
Imaging of living animals and organs was performed using IVIS […] imaging system Caliper Life Sciences, Preston Brook Runcorn, UK). […] Fluorescence excite light was provided by a halogen lamp combined with an appropriate excite filter. […] The fluorescence imaging was obtained with an excitation wavelength of 554 nm and an emission wavelength of 581 nm (dTomato). […] In Living Image software (version 3.2, Caliper Life Sciences), using an area of interest tool, fluorescence was quantified.

tracheal smooth muscle = assay: Tracheal contraction in rat tracheal ring; details: 30 μM after carbachol-induced contraction
Description: All experiments were performed using 4-week-old SD male rats. The experimental protocol was approved by the Animal Ethics Committee of Yonsei University. The rats were sacrificed and tracheal strips were separated. After the connective tissue was separated, the organ was cut into 3 mm long rings. The organ was mounted for tension recording under 1 g tension and equilibrated for 1 hour in an organ bath containing 25 mL of oxygenated physiological solution. The solution was gassed successively with 95% 02 and 5% CO2 at 37° C. After 1 hours of stabilization, 0.3 μM carbachol (CCh) was used to induce a sustained contraction reaction in the organ bath. Once the sustained tension was established, F56 (30 μM) and forskolin (10 μM) and IBMX (100 μM) were applied to the bath. The organ contraction was measured using FORT 10G converter (World Precision Instruments, Sarasota, FL, USA) and PowerLab 4/35 (AD Instruments, Castle Hill, Australia). Data were recorded and analyzed using Labchart Pro 7 (AD Instruments).

CC(C)(C)c1ccc(C2=NC(=Cc3cccs3)C(=O)O2)cc1 [F56, 2-(4-(tert-butyl)phenyl)-4-(thiophen-2-ylmethylene)oxazol-5(4H)-one]
ion channel activity of AN01, CFTR and ENaC [1]: did not change
hearing threshold [2]: not changed
fluorescence of the excised lung (NF-κ activation) (NF-κ): inhibited
effect on tracheal smooth muscle (tracheal smooth muscle): did not affect
